From US8686044B2, “Amide derivative, pest control agent containing the amide derivative, and use of the amide derivative” (Mitsui Chemicals Agro, Inc., priority 2008, dated 2014) come the findings set out here.

The structures appear in SMILES notation. A value given as a limit tells only on which side of the number the result lay.

Holding throughout (format): in vivo
One test has as its system Spodoptera litura. Briefly: Pesticidal test against Spodoptera litura (cabbage leaf dip). Conditions: foliar, 144 h, 2-stage larvae, examined after 6 days, 25° C., read-out: pesticidal rate; for pest or weed control at 1 ppm: concentration 1 ppm. A digest of the protocol: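 Cabbage leaf pieces dipped 30 seconds in compound solution at a predetermined concentration and air-dried, then offered to second-stage larvae, five per group in two replicates. Held at 25° C. Living and dead larvae counted after 6 days.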

The subject of another test is Plutella xylostella. Description: Pesticidal test against Plutella xylostella (cabbage leaf dip). Conditions: foliar, 144 h, 2-stage larvae, examined after 6 days, 25° C., read-out: pesticidal rate; for pest or weed control at 1 ppm: concentration 1 ppm. A digest of the protocol:
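Cabbage leaf pieces dipped 30 s in test solution at a predetermined concentration, air-dried, then offered to 2nd-instar larvae, five per group in duplicate. Held at 25° C; living and dead larvae counted after 6 days.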

Another test concerns Adoxophyes honmai. Description: Pesticidal test against Adoxophyes honmai (artificial feed dip). Conditions: 144 h, 2-stage larvae, examined after 6 days, 25° C., read-out: pesticidal rate; for pest or weed control at 1 ppm: concentration 1 ppm; for pest or weed control at 10 ppm: concentration 10 ppm. Here is the method: (§1) Pesticidal Test against Adoxophyes honmai A thinly sliced artificial feed was immersed for 30 seconds in a chemical solution in which a test compound had been prepared at a predetermined concentration, and air-dried, and then put into a 7 cm polyethylene cup having a filter paper laid on the bottom thereof, and 2-stage larvae of Adoxophyes honmai were released. They were left to stand in a thermostatic chamber at 25° C., and the numbers of the living pests and the dead pests were examined after 6 days. The test was carried out with five larvae per group in two replicates. Further, the above compound (A) was used as a comparative compound.

The test system of a further test is Choristoneura magnanima. Briefly: Pesticidal test against Choristoneura magnanima (artificial feed dip). The settings on record: 144 h, 2-stage larvae, examined after 6 days, 25° C., read-out: pesticidal rate; for pest or weed control at 1 ppm: concentration 1 ppm; for pest or weed control at 10 ppm: concentration 10 ppm. Here is the method: as §1, with “Choristoneura magnanima” for “Adoxophyes honmai”

A further test has as its system Helicoverpa armigera. Description: Pesticidal test against Helicoverpa armigera (cabbage leaf disk dip). The settings on record: foliar, 72 h, 2-stage larvae, examined after 3 days, 25° C., read-out: pesticidal rate; for pest or weed control at 1 ppm: concentration 1 ppm. How it is done:
as §1, with “Helicoverpa armigera” for “Adoxophyes honmai”, “cabbage leaf disk” for “thinly sliced artificial feed”, “air-dried. The leaf disk was” for “air-dried, and then”, “6-hole plastic” for “7 cm polyethylene”, “released with one insect being released per hole.” for “released.”, “3” for “6”

The subject of another test is Laodelphax striatellus. Description: Pesticidal test against Laodelphax striatellus (rice seedling spray). The settings on record: 144 h, concentration 100 ppm, 3-stage larvae, examined after 6 days, 25° C., read-out: pesticidal rate. The method, boiled down:
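Rice seedlings sprayed with 2.5 ml acetone solution of compound at a predetermined concentration, air-dried, then infested with third-stage Laodelphax striatellus larvae in capped water-containing tubes at 25 °C. Living and dead insects counted after 6 days; ten larvae per group, two replicates.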

A further test deals with Musca domestica. Description: Pesticidal test against Musca domestica (petri dish dry film). Conditions: 24 h, concentration 100 ppm, female adults, examined after 1 day, 25° C., read-out: pesticidal rate. A digest of the protocol:
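Dry film from 1 ml acetone solution of compound at a predetermined concentration, air-dried in a 9 cm petri dish; female adult flies released and dish capped. Held at 25° C; living and dead counted after 1 day. Five insects per group, two replicates.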

Take `O=C(Nc1c(I)cc(C(F)(C(F)(F)F)C(F)(F)C(F)(F)F)cc1I)c1cccc(NC(=O)c2c(F)cccc2F)c1` (stereo not drawn) [6-80]: the pest or weed control at 1 ppm in the test on Spodoptera litura, in the test on Plutella xylostella, in the test on Adoxophyes honmai, in the test on Choristoneura magnanima and with Helicoverpa armigera was not below 70% in each case. Besides, in the test with Laodelphax striatellus, the pest or weed control at 100 ppm is not below 70%.

As to `O=C(Nc1c(I)cc(C(F)(C(F)(F)F)C(F)(F)C(F)(F)F)cc1I)c1cccc(NC(=O)c2cccnc2Cl)c1` (stereo not drawn) [6-90], the pest or weed control at 1 ppm in the test on Spodoptera litura, in the test on Plutella xylostella, in the test with Adoxophyes honmai, in the test with Choristoneura magnanima and in the test with Helicoverpa armigera was not below 70% in each case. Also, the pest or weed control at 100 ppm with Laodelphax striatellus is not below 70%.

With `O=C(Nc1cccc(C(=O)Nc2c(Br)cc(C(F)(C(F)(F)F)C(F)(F)F)cc2C(F)(F)F)c1)c1ccc(F)cc1` [6-271], the pest or weed control at 1 ppm in the test with Spodoptera litura, in the test with Plutella xylostella, in the test on Choristoneura magnanima and with Helicoverpa armigera was not below 70% in each case. Moreover, the pest or weed control at 10 ppm in the test with Adoxophyes honmai was not below 70%. Also, the pest or weed control at 100 ppm in the test on Laodelphax striatellus is not below 70%.

On to `O=C(Nc1cccc(C(=O)Nc2c(Br)cc(C(F)(C(F)(F)F)C(F)(F)C(F)(F)F)cc2C(F)(F)F)c1)c1ccc(F)cc1` (stereo not drawn) [6-349], for which the pest or weed control at 1 ppm with Spodoptera litura, in the test with Plutella xylostella, with Adoxophyes honmai, in the test on Choristoneura magnanima and in the test with Helicoverpa armigera was not below 70% throughout.

`O=C(Nc1c(I)cc(C(F)(C(F)(F)F)C(F)(F)F)cc1C(F)(F)F)c1cccc(NC(=O)c2c(F)cccc2F)c1` [6-446]: the pest or weed control at 1 ppm in the test with Spodoptera litura, in the test on Plutella xylostella, in the test with Adoxophyes honmai and in the test with Helicoverpa armigera was not below 70% throughout. The pest or weed control at 10 ppm in the test with Choristoneura magnanima was not below 70%. In addition, in the test on Laodelphax striatellus, the pest or weed control at 100 ppm was not below 70%.

Turning to `O=C(Nc1cccc(C(=O)Nc2c(Br)cc(C(F)(C(F)(F)F)C(F)(F)F)cc2Br)c1F)c1ccccc1` [6-1104], the pest or weed control at 1 ppm in the test on Spodoptera litura, with Plutella xylostella, in the test with Choristoneura magnanima and in the test on Helicoverpa armigera was not below 70% in each case. Also, in the test on Adoxophyes honmai, the pest or weed control at 10 ppm was not below 70%. The pest or weed control at 100 ppm in the test on Laodelphax striatellus is not below 70%.

For `O=C(Nc1cccc(C(=O)Nc2c(Br)cc(C(F)(C(F)(F)F)C(F)(F)C(F)(F)F)cc2Br)c1F)c1ccccc1` (stereo not drawn) [6-1182], the pest or weed control at 1 ppm in the test on Spodoptera litura, in the test with Plutella xylostella, in the test on Adoxophyes honmai and with Choristoneura magnanima was not below 70% throughout. For the same molecule, the pest or weed control at 100 ppm in the test with Laodelphax striatellus is not below 70%.

Consider `O=C(Nc1cccc(C(=O)Nc2c(I)cc(C(F)(C(F)(F)F)C(F)(F)F)cc2I)c1F)c1ccc(F)cc1` [6-1263], for which the pest or weed control at 1 ppm with Spodoptera litura, with Plutella xylostella, in the test on Adoxophyes honmai, in the test with Choristoneura magnanima and in the test on Helicoverpa armigera was not below 70% throughout. Also, in the test on Laodelphax striatellus, the pest or weed control at 100 ppm was not below 70%.

`O=C(Nc1cccc(C(=O)Nc2c(Br)cc(C(F)(C(F)(F)F)C(F)(F)F)cc2C(F)(F)F)c1F)c1ccccc1` [6-1574]: the pest or weed control at 1 ppm in the test on Spodoptera litura, in the test on Plutella xylostella, in the test on Adoxophyes honmai, in the test with Choristoneura magnanima and in the test with Helicoverpa armigera was not below 70% throughout. Besides, in the test on Laodelphax striatellus, the pest or weed control at 100 ppm is not below 70%.

With `O=C(Nc1cccc(C(=O)Nc2c(Br)cc(C(F)(C(F)(F)F)C(F)(F)C(F)(F)F)cc2C(F)(F)F)c1F)c1cccc(F)c1` (stereo not drawn) [6-1654], the pest or weed control at 1 ppm in the test on Spodoptera litura, with Plutella xylostella, in the test on Adoxophyes honmai, in the test on Choristoneura magnanima and in the test with Helicoverpa armigera was not below 70% each time. Also, the pest or weed control at 100 ppm with Laodelphax striatellus is not below 70%.

Consider `N#Cc1ccc(C(=O)Nc2cccc(C(=O)Nc3c(Br)cc(C(F)(C(F)(F)F)C(F)(F)C(F)(F)F)cc3C(F)(F)F)c2F)cc1` (stereo not drawn) [6-1673], for which the pest or weed control at 1 ppm with Spodoptera litura, with Plutella xylostella, in the test with Choristoneura magnanima and in the test with Helicoverpa armigera was not below 70% each time. Also, the pest or weed control at 100 ppm with Laodelphax striatellus and with Musca domestica was not below 70% in each case.

With `N#Cc1ccc(C(=O)Nc2cccc(C(=O)Nc3c(I)cc(C(F)(C(F)(F)F)C(F)(F)C(F)(F)F)cc3C(F)(F)F)c2F)cc1` (stereo not drawn) [6-1829], the pest or weed control at 1 ppm in the test with Spodoptera litura, with Plutella xylostella, in the test on Choristoneura magnanima and with Helicoverpa armigera was not below 70% each time. Besides, the pest or weed control at 100 ppm in the test with Laodelphax striatellus and with Musca domestica was not below 70% throughout.

As for `CN(C(=O)c1cccnc1Cl)c1cccc(C(=O)Nc2c(I)cc(C(F)(C(F)(F)F)C(F)(F)C(F)(F)F)cc2I)c1` (stereo not drawn) [7-90], the pest or weed control at 1 ppm with Spodoptera litura, in the test on Plutella xylostella, in the test with Choristoneura magnanima and with Helicoverpa armigera was not below 70% each time. Besides, the pest or weed control at 100 ppm in the test with Laodelphax striatellus and in the test on Musca domestica was not below 70% in each case.

Regarding `CN(C(=O)c1ccc(C#N)cc1)c1cccc(C(=O)Nc2c(I)cc(C(F)(C(F)(F)F)C(F)(F)C(F)(F)F)cc2C(F)(F)F)c1` (stereo not drawn) [7-523], the pest or weed control at 1 ppm in the test with Spodoptera litura, in the test with Plutella xylostella, in the test with Choristoneura magnanima and in the test with Helicoverpa armigera was not below 70% in each case. Moreover, the pest or weed control at 10 ppm with Adoxophyes honmai was not below 70%.

In the case of `CN(C(=O)c1cccc(C#N)c1)c1cccc(C(=O)Nc2c(Br)cc(C(F)(C(F)(F)F)C(F)(F)F)cc2Br)c1F` [7-1124], the pest or weed control at 1 ppm with Spodoptera litura, in the test with Plutella xylostella and in the test with Choristoneura magnanima was not below 70% in each case. The pest or weed control at 10 ppm in the test with Adoxophyes honmai is not below 70%. The pest or weed control at 100 ppm in the test with Laodelphax striatellus was not below 70%.

As for `CN(C(=O)c1ccccc1)c1cccc(C(=O)Nc2c(I)cc(C(F)(C(F)(F)F)C(F)(F)F)cc2I)c1F` [7-1260], the pest or weed control at 1 ppm with Spodoptera litura, in the test on Plutella xylostella and with Choristoneura magnanima was not below 70% each time. Moreover, the pest or weed control at 10 ppm in the test with Adoxophyes honmai was not below 70%. In addition, the pest or weed control at 100 ppm with Laodelphax striatellus was not below 70%.

Turning to `CN(C(=O)c1ccc(C#N)cc1)c1cccc(C(=O)Nc2c(I)cc(C(F)(C(F)(F)F)C(F)(F)C(F)(F)F)cc2I)c1F` (stereo not drawn) [7-1359], the pest or weed control at 1 ppm in the test with Spodoptera litura, with Plutella xylostella, in the test with Choristoneura magnanima and with Helicoverpa armigera was not below 70% in each case. The pest or weed control at 100 ppm with Laodelphax striatellus and in the test with Musca domestica was not below 70% each time.

On to `CN(C(=O)c1ccc(C#N)cc1)c1cccc(C(=O)Nc2c(I)cc(C(F)(C(F)(F)F)C(F)(F)C(F)(F)F)cc2C(F)(F)F)c1F` (stereo not drawn) [7-1829], for which the pest or weed control at 1 ppm in the test with Spodoptera litura, in the test on Plutella xylostella, in the test with Choristoneura magnanima and with Helicoverpa armigera was not below 70% each time. In addition, the pest or weed control at 100 ppm with Laodelphax striatellus and with Musca domestica was not below 70% in each case.

In the case of `COc1cc(C(F)(C(F)(F)F)C(F)(F)F)cc(C)c1NC(=O)c1cccc(N(C)C(=O)c2ccccc2)c1` [compound (A), reference compound], the pest or weed control at 10 ppm with Spodoptera litura (concentration 10 ppm), with Plutella xylostella (concentration 10 ppm), in the test with Adoxophyes honmai, in the test on Choristoneura magnanima and with Helicoverpa armigera (concentration 10 ppm) was not above 50% in each case.
